Data set [1] has as its target Dual specificity protein kinase CLK2 (Homo sapiens, UniProt P49760). The experiment in a line: Selectivity interaction (Kinase panel (Z-LYTE Assay)) EUB0001632a CLK2. Particulars: at 10 µM.
The target in data set [2] is Glycogen synthase kinase-3 alpha (Homo sapiens, UniProt P49840). The data set is described as follows: Selectivity interaction (KinomeScan (DiscoverX)) EUB0000595a GSK3A. Particulars: at 10 µM.
Data set [3] has as its target Myosin-IIIa (Homo sapiens) (UniProt Q8NEV4). Particulars: at 10 µM.
The target of data set [4] is Serine/threonine-protein kinase mTOR (Homo sapiens, UniProt P42345). The data set is described as follows: Selectivity interaction (KinomeScan (DiscoverX)) EUB0000666a MTOR. Particulars: at 10 µM.
Data set [5] concerns the target Ribosomal protein S6 kinase beta-1 (Homo sapiens, UniProt P23443). The data set is described as follows: Selectivity interaction (KinomeScan (DiscoverX)) EUB0000607a RPS6KB1. Particulars: at 10 µM.
In data set [6] the target is Mitogen-activated protein kinase kinase kinase kinase 4 (Homo sapiens, UniProt O95819). The experiment in a line: Selectivity interaction (Kinase screening (Nanosyn)) EUB0000604a MAP4K4.
The target in data set [7] is T1, Mitogen-activated protein kinase 12 (Homo sapiens) (UniProt P53778).
T1 sequence (whole entry): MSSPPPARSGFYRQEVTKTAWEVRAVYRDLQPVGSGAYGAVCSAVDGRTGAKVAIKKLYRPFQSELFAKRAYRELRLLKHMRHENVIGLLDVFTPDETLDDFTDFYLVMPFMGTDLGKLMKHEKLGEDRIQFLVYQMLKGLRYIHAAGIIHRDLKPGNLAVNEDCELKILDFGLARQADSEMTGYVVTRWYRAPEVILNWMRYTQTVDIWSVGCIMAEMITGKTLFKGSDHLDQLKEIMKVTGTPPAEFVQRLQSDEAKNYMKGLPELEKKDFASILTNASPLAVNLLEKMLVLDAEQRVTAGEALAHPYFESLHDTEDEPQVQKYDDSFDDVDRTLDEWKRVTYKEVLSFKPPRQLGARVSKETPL
The data set is described as follows: Selectivity interaction (Kinase screening (Upstate/Millipore)) EUB0000604a MAPK12.

The target of data set [8] is CDK7/Cyclin H/MNAT1 (Homo sapiens) (UniProt P51946+P50613+P51948). The experiment in a line: Selectivity interaction (Kinase panel (Invitrogen)) EUB0000639a CDK7. Particulars: at 200 nM. It counts as protein-complex assay.
Data set [9] concerns the target Tyrosine-protein kinase JAK2 (Homo sapiens, UniProt O60674). The data set is described as follows: Selectivity interaction (Ambit KINOMEscan and KiNATiv profiling in Jurkat cells) EUB0000090b JAK2. It counts as cell-based. Particulars: at 1 µM.
Data set [10] has as its target L-type calcium channel Cav1.2 (CACNA1C) (Homo sapiens, UniProt Q13936). The experiment in a line: Selectivity interaction (Panel of kinases, GPCRs, ion channels and transporters (enzymatic assay)) EUB0000223bCl CACNA1C.
The target of data set [11] is Homeodomain-interacting protein kinase 2 (Homo sapiens, UniProt Q9H2X6). The data set is described as follows: Selectivity interaction (KinomeScan (DiscoverX)) EUB0000655a HIPK2. Particulars: at 10 µM.
Data set [12] concerns the target Phosphatidylinositol 4,5-bisphosphate 3-kinase catalytic subunit gamma isoform (Homo sapiens) (UniProt P48736). The data set is described as follows: Selectivity interaction (KinomeScan (DiscoverX)) EUB0000655a PIK3CG. Particulars: at 10 µM.
The target of data set [13] is 5'-AMP-activated protein kinase catalytic subunit alpha-1 (Homo sapiens, UniProt Q13131). The experiment in a line: Selectivity interaction (KinomeScan (DiscoverX)) EUB0000618a PRKAA1. Particulars: at 10 µM.
For data set [14], the target named is T2, Serine/threonine-protein kinase Nek9 (Homo sapiens) (UniProt Q8TD19).
T2 sequence (whole entry): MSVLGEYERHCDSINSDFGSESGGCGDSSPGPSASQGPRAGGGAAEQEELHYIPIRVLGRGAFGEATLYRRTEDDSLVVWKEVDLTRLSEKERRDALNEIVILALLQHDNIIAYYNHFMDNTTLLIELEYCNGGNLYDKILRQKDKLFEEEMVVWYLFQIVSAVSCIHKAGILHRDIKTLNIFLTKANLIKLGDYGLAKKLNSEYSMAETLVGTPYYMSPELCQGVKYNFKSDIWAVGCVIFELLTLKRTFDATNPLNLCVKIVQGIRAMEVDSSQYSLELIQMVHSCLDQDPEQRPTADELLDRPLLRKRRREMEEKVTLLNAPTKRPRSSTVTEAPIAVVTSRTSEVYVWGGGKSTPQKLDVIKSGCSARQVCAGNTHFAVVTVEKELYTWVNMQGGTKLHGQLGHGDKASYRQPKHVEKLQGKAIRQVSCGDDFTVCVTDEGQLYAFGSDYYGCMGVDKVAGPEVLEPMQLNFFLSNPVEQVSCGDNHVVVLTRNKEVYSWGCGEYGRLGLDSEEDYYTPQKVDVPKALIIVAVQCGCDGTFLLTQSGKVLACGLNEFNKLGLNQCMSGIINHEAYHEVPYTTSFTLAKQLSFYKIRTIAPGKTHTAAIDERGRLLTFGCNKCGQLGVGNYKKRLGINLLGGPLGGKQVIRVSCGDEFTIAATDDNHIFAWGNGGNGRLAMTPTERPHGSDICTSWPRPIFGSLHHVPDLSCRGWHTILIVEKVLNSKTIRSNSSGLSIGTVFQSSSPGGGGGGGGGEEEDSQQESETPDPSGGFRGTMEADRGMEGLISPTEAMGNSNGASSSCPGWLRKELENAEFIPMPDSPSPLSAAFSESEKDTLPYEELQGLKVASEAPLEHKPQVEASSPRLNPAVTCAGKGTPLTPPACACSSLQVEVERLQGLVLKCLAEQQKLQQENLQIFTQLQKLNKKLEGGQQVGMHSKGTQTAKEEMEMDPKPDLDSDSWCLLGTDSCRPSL
The data set is described as follows: Selectivity interaction (KinomeScan (DiscoverX)) EUB0000092b NEK9. Particulars: at 10 µM.

Data set [15] deals with Vascular endothelial growth factor receptor 2 (Homo sapiens, UniProt P35968). The experiment in a line: Selectivity interaction (KinomeScan (DiscoverX)) EUB0000229b KDR. Particulars: at 10 µM.

The values that follow come from ChEMBL document CHEMBL5465560, “Selectivity Literature for EUbOPEN Chemogenomic Library” (2024).

Mitogen-activated protein kinase kinase kinase kinase 4, sequence (O95819 2-1239 limits assumed): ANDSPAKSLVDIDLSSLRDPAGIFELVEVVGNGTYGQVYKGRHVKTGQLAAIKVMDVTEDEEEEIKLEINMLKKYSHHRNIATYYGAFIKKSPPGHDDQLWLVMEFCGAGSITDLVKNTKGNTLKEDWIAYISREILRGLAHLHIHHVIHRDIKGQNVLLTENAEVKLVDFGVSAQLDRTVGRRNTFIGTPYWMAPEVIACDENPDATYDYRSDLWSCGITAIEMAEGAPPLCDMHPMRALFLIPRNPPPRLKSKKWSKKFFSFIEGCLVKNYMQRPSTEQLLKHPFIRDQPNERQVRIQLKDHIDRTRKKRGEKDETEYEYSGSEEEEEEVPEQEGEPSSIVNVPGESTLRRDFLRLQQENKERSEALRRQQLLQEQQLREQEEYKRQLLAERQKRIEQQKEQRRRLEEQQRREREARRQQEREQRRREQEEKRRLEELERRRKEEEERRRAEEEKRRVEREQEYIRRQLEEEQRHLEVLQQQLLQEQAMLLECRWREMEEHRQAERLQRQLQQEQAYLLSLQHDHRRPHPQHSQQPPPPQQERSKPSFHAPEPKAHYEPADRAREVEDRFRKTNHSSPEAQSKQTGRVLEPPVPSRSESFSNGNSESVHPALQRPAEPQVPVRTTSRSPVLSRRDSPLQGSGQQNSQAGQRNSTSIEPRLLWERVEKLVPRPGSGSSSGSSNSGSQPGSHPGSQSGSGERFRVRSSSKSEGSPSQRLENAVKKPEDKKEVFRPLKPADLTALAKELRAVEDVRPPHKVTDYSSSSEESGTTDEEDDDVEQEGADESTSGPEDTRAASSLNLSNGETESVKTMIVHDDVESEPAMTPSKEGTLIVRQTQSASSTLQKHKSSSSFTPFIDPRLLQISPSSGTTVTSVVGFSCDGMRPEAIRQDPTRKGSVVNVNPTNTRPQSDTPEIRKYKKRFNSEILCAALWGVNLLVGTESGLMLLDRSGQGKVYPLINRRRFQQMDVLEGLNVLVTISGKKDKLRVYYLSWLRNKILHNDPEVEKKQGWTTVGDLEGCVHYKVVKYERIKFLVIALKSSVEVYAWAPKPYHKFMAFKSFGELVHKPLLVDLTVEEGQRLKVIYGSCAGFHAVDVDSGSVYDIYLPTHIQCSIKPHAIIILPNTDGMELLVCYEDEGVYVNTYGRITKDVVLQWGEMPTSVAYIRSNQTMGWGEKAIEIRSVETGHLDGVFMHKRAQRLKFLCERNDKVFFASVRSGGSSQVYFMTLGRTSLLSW
Dual specificity protein kinase CLK2, sequence (P49760 whole entry, looked up): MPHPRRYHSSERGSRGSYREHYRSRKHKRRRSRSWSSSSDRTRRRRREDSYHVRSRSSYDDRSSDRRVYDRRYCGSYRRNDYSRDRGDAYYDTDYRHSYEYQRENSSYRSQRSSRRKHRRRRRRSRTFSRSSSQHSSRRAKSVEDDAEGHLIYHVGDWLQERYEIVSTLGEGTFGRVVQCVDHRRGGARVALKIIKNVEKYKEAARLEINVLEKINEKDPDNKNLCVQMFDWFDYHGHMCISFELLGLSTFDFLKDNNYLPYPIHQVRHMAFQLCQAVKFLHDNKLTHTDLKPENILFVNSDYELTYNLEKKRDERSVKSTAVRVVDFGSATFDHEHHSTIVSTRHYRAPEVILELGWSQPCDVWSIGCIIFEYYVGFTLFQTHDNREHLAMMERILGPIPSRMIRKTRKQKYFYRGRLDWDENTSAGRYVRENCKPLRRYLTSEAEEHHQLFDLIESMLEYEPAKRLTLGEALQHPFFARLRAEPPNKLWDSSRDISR
5'-AMP-activated protein kinase catalytic subunit alpha-1, sequence (Q13131 whole entry, looked up): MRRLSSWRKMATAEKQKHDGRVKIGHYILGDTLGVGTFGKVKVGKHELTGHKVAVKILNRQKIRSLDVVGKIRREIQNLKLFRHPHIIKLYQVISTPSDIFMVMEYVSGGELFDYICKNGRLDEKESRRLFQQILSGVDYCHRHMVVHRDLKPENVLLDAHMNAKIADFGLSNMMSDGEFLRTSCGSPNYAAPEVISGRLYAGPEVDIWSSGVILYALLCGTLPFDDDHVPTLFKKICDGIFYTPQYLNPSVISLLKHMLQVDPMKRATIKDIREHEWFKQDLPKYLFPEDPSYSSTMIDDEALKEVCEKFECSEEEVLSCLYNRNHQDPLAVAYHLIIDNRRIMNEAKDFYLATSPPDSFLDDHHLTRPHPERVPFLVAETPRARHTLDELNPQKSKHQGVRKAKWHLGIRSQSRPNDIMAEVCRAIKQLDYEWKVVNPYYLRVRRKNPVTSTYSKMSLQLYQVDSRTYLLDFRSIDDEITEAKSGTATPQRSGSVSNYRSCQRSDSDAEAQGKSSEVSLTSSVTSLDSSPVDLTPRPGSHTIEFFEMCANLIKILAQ
Glycogen synthase kinase-3 alpha, sequence (P49840 2-483 limits assumed): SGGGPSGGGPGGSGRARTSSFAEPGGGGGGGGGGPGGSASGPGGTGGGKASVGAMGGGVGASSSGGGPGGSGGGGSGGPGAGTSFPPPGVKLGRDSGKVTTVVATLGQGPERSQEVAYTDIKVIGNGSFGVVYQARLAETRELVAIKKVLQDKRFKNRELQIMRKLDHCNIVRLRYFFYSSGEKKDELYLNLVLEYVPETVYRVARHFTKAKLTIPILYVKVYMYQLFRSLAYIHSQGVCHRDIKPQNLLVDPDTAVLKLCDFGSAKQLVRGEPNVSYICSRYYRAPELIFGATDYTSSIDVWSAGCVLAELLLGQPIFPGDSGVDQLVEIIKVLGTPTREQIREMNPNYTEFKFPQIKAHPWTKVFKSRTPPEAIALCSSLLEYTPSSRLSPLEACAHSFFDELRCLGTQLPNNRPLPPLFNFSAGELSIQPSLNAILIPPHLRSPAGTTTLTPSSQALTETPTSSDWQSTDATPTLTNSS
Homeodomain-interacting protein kinase 2, sequence (Q9H2X6 whole entry, looked up, canonical isoform): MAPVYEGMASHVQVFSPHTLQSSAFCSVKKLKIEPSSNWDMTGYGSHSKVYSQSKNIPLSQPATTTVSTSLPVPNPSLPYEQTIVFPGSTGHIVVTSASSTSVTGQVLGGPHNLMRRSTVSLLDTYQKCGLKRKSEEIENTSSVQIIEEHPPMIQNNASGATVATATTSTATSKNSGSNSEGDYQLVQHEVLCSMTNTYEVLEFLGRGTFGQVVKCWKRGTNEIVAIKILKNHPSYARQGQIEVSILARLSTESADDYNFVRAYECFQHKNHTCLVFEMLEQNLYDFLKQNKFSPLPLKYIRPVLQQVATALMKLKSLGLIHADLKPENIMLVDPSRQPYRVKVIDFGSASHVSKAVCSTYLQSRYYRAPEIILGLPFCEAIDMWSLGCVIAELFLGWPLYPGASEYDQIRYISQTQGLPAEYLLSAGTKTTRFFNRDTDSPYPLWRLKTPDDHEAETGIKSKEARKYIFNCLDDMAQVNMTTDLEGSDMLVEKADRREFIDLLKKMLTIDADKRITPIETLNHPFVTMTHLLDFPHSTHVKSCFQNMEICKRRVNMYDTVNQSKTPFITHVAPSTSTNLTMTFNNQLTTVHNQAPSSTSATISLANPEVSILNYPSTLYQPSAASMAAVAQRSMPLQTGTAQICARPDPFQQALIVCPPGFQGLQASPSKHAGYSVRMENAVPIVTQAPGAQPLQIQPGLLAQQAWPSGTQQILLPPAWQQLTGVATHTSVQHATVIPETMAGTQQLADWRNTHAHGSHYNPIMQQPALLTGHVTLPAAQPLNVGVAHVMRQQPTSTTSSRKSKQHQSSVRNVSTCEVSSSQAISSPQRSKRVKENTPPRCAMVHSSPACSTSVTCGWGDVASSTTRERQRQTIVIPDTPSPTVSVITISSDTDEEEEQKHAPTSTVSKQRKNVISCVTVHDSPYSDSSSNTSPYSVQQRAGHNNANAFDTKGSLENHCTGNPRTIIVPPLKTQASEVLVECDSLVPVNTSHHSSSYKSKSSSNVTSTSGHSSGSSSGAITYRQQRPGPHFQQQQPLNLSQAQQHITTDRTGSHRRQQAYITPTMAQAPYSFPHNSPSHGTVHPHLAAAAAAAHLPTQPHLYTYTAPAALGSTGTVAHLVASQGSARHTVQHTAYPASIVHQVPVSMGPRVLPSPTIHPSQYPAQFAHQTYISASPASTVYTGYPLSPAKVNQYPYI
Ribosomal protein S6 kinase beta-1, sequence (P23443 whole entry, looked up): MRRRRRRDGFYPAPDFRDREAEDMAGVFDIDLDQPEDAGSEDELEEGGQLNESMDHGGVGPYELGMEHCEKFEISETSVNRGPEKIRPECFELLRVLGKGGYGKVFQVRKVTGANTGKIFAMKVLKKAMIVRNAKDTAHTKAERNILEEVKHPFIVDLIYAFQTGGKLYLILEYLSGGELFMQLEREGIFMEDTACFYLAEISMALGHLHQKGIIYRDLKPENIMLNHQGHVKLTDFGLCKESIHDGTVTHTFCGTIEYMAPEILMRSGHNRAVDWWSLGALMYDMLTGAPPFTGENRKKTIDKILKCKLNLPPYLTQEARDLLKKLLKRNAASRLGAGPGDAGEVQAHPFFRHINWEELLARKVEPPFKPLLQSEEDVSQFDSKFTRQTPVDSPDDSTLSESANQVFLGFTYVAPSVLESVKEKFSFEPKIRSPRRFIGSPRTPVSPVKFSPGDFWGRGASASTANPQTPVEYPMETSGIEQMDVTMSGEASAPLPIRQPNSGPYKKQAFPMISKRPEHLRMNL

Regarding `Cn1cc(-n2cnc3c(NCc4nc5cc(Cl)c(Cl)cc5[nH]4)nc(N4CCOCC4)nc32)cn1`, the % of control in [1] stood at 4.94%.

For `COCC(=O)NC/C=C/c1ccc2ncnc(Nc3ccc(Oc4ccc(C)nc4)c(C)c3)c2c1` [CP-724714], the % of control in [2] was determined as 100%.

As to `CCN(CC)CCCCNc1ncc2cc(-c3cc(OC)cc(OC)c3)c(NC(=O)NC(C)(C)C)nc2n1`, in [3], the % of control is 100%.

As for `O=C(NOC[C@H](O)CO)c1ccc(F)c(F)c1Nc1ccc(I)cc1F`, in data set [4], the % of control amounted to 100%.

Take `CNC(=O)Nc1ccc(-c2nc(N3CC4CCC(C3)O4)c3cnn(C4CCC5(CC4)OCCO5)c3n2)cc1`: the % of control in data set [5] was 100%.

With `Cc1cnc(Nc2ccc(F)cc2Cl)nc1-c1c[nH]c(C(=O)N[C@H](CO)c2cccc(Cl)c2)c1`, the % of inhibition in data set [6] came out at 18%; in [7], 56%.

In [8], `CC[C@@H]1[C@H](F)C(=O)N[C@@H]1COc1nccc2cc(C(N)=O)c(OC)cc12` [ZIMLOVISERTIB] displayed a % of inhibition of 2.84%.

In data set [9], `CN(C)C/C=C/C(=O)Nc1ccc(C(=O)N2CCCC(Nc3ncc(Cl)c(-c4c[nH]c5ccccc45)n3)C2)cc1` (stereo not given) yielded a % of control of 89%.

As for `COc1cc(C(=O)N2CC[C@@H](O)[C@@H](N)C2)cc2nc(-c3cc4ccccc4n3CC3CC3)n(C)c12`, in data set [10], the XC50 is 3.98 µM.

Regarding `CN(C)CCOc1ccc(-c2nc(-c3ccncc3)c(-c3ccc4c(c3)CC/C4=N\O)[nH]2)cc1`, the % of control is 19% in data set [11] and 84% in data set [12].

Compound `O[C@H]1CC[C@H](Nc2ncc3nc(Nc4c(F)cc(F)cc4F)n([C@H]4CCOC4)c3n2)CC1` registered a % of control in data set [13] of 99%.

For `CCC(=O)N1CCN(c2ccc(-n3c(=O)ccc4cnc5ccc(-c6cnc7ccccc7c6)cc5c43)cc2C(F)(F)F)CC1`, the % of control in data set [14] is 100%.

In turn, `COc1cc(N(C)c2ccnc3ccc(C(F)(F)F)cc23)cc(OC)c1OC` displayed a % binding in data set [15] of 85%.
